Experiment [1] concerns Plasmodium falciparum. Put plainly: ST_JUDE: Plasmodium falciparum K1 EC50 (uM) as measured by SYBR green dye. The class given is functional, organism-based.
Experiment [2] deals with Plasmodium falciparum. Put plainly: ST_JUDE: Plasmodium falciparum 3D7 EC50 (uM) as measured by SYBR green dye. It counts as functional, organism-based.

What is called EC50 is the midpoint of the concentration-response curve. A low value points to a more potent agent. As for `Cc1ccc(C)c(Oc2c(C(F)(F)F)oc3c(CN4CCN(Cc5ccccc5)CC4)c(O)ccc3c2=O)c1`, the figures for the EC50 in experiment [1] and in experiment [2] were 0.274 µM and 0.612 µM, respectively.
On the same counts, the results for `CNc1c([N+](=O)[O-])nn(-c2ccc(Cl)cc2)[n+]1[O-]` are 3.76 µM and above 15 µM.
On the same counts, the results for `COc1ccc(-c2nn(C)c3sc(C(=O)Nc4cccc(SC)c4)cc23)cc1OC` are 5.24 µM and above 15 µM.
In the same order, the values of `NNc1nc(Nc2ccc(F)cc2)nc(N2CCOCC2)n1` are 5.15 µM and 7.07 µM.
With `CC(=O)Nc1ccc(S(=O)(=O)N2CCN(c3ccc(Nc4ccccc4)nn3)CC2)cc1`, the EC50 in experiment [1] is above 15 µM; in experiment [2], 7.32 µM.
On the same counts, the results for `CCN(CC)c1cc(C)c2cc(NC(=O)c3cccc([N+](=O)[O-])c3)ccc2n1` are above 15 µM and 0.59 µM.
In the same order, the values of `COc1ccc(CN2CCN(Cc3cc(Br)ccc3O)CC2)cc1OC` are 6.31 µM and 4.91 µM.
On the same counts, the results for `CCc1nnc2n1NC(c1ccccc1)C(C(=O)Nc1ccccc1Cl)S2` (configuration not stated) are above 15 µM and above 15 µM.
`O=C(CCCCCN1C(=O)c2cccc3cccc(c23)C1=O)NO` [SCRIPTAID]: the figures for the concentration giving a half-maximal response (EC50) in experiment [1] and in experiment [2] were 2.22 µM and 3.78 µM, respectively.
On the same counts, the results for `CCc1ccc(C(Nc2ccccn2)c2cc(Cl)c3cccnc3c2O)cc1` (configuration not stated) are above 15 µM and 4.41 µM.
On the same counts, the results for `Cc1ccc2c(c1)c1c(n2CC(O)CNC2CCCC2)CCCC1` (configuration not stated) are 1.72 µM and 2.9 µM.
Turning to `C=CCNc1c2c(nc3ccccc13)CCC2`, the values for the EC50 in experiment [1] and in experiment [2] were 1.15 µM and 3.24 µM, respectively.
`Cc1ccc(C)c(NC(=O)c2c(-c3c(Cl)cccc3Cl)noc2C)c1`: the EC50 in experiment [1] was found to be 4.36 µM; in experiment [2], 0.537 µM.
In the same order, the values of `O=C(NNc1nc2ccc(F)cc2s1)c1ccc(F)cc1` are 7.1 µM and above 15 µM.
On the same counts, the results for `O=C1C(Nc2cccc(C(F)(F)F)c2)=C(N2CCCCC2)C(=O)c2ccccc21` are 1.49 µM and 0.852 µM.
In the same order, the values of `COc1ccc(NC(=O)Cn2ncc3c(=O)oc4ccc(C)cc4c32)cc1` are above 15 µM and above 15 µM.
On to `Cc1cccc(C2CC(=O)NC3=C2C(=O)CC(c2ccccc2Cl)C3)c1` (configuration not stated), for which the EC50 in experiment [1] is 4.42 µM; in experiment [2], above 15 µM.
In the same order, the values of `CC(=O)NC1=NN(C(C)=O)C(C)(c2cccc(NC(C)=O)c2)S1` (configuration not stated) are 4.14 µM and 3.57 µM.
On the same counts, the results for `CC(=O)NC(c1ccc(C(C)C)cc1)c1ccc2cccnc2c1O` (configuration not stated) are 6.76 µM and 6.6 µM.
In the same order, the values of `CCOC(=O)c1ccc(Nc2nc3nonc3nc2O)cc1` are above 15 µM and above 15 µM.
As for `Cc1c(Cl)cccc1NC(=O)c1ccccc1[N+](=O)[O-]`, the EC50 in experiment [1] and in experiment [2] was above 15 µM in each case.
As to `Cn1c2c(c(=N)c3c1CCC3)CCCC2`, the concentration for a half-maximal effect (EC50) in experiment [1] was found to be 5.79 µM; in experiment [2], 2.39 µM.
In the same order, the values of `CC(=O)NC(c1ccc(Cl)cc1Cl)c1ccc2cccnc2c1O` (configuration not stated) are 3.01 µM and 3.22 µM.
`COc1cc(CN(Cc2cccnc2)C(=O)c2[nH]c3ccc(Cl)cc3c2C)ccc1OC1CCOC1` (configuration not stated): the EC50 in experiment [1] and in experiment [2] was above 15 µM each time.
In the case of `CCc1ccccc1NC(=O)C1c2ccccc2C(=O)N(C2CCCC2)C1c1cccs1` (configuration not stated), the values for the EC50 in experiment [1] and in experiment [2] were 3.38 µM and 1.73 µM, respectively.
In the same order, the values of `CCN(CC)c1ccc(/C=C/C2=[N+](C)c3ccc(C(=O)OC)cc3C2(C)C)cc1` are above 15 µM and 3.08 µM.
On the same counts, the results for `Cc1nc2sc(C(c3ccc(Cl)c(Cl)c3)N3CCN(C)CC3)c(O)n2n1` (configuration not stated) are above 15 µM and above 15 µM.
As to `CCN(C(=O)c1cc2cc3ccc(OC)cc3nc2o1)c1ccc(F)cc1`, the EC50 in experiment [1] and in experiment [2] was above 15 µM throughout.
Take `CCc1c(C)nc(-n2nc(C)cc2NC(=O)c2ccc(C)c(C)c2)nc1O`: the EC50 in experiment [1] and in experiment [2] was above 15 µM throughout.
As for `CCCOc1ccc(C(NC(=O)CCl)NC(=O)CCl)cc1OC`, the EC50 in experiment [1] came out at 3.74 µM; in experiment [2], 3.99 µM.
In the same order, the values of `Oc1ccc(Cl)cc1Nc1ncnc2ccc(Br)cc12` are 3.85 µM and above 15 µM.
Turning to `COc1cc(OC)cc(-c2nnc(NC(=O)c3cccc(S(C)(=O)=O)c3)o2)c1`, the EC50 in experiment [1] and in experiment [2] was above 15 µM throughout.
Consider `COc1ccc(N2CCN(C(CNC(=O)CC(C)(C)C)c3ccc4c(c3)OCO4)CC2)cc1` (configuration not stated), for which the EC50 is 2.01 µM in experiment [1] and 4.28 µM in experiment [2].
In the same order, the values of `CCOc1cc(/C=C(\C#N)c2nn(CCO)c(N)c2C#N)cc(I)c1OC` are above 15 µM and above 15 µM.
On the same counts, the results for `Cc1ccc(C)c(C(Nc2ccccn2)c2cc(Cl)c3cccnc3c2O)c1` (configuration not stated) are above 15 µM and above 15 µM.
In the same order, the values of `Oc1ccc(C(=C(Cl)Cl)c2ccc(O)cc2)cc1` are 0.927 µM and 2.47 µM.
For the compound `O=C(Nc1nc(-c2ccccn2)cs1)c1ccccc1Br`, the EC50 in experiment [1] worked out at 2.05 µM; in experiment [2], 4.53 µM.
In the same order, the values of `COc1cccc(C(=O)NC(c2ccc(Cl)cc2)c2cc(Cl)c3cccnc3c2O)c1` (configuration not stated) are 1.66 µM and 2.01 µM.
On the same counts, the results for `O=C(Cc1ccccc1)NC(c1ccc([N+](=O)[O-])cc1)c1c(O)ccc2ccccc12` (configuration not stated) are 5.77 µM and 6.31 µM.
On to `CCc1c(C)nc(-n2nc(C)cc2NC(=O)c2ccc(C(C)(C)C)cc2)nc1O`, for which the EC50 in experiment [1] and in experiment [2] was above 15 µM each time.
For the compound `COC(=O)c1cn(NC(=O)c2cccc(F)c2)c(=O)c2ccccc12`, the results for the concentration giving a half-maximal response (EC50) in experiment [1] and in experiment [2] were above 15 µM and 6.66 µM, respectively.
On to `C=CCOC(=O)C1=C(C)N=C2CCCC(O)=C2C1c1ccc(OCC)c(OC)c1` (configuration not stated), for which the EC50 was 5.26 µM in experiment [1] and above 15 µM in experiment [2].
Regarding `CSc1cccc(NC(=O)N2CCC(CO)(Cc3ccccc3Cl)CC2)c1`, the EC50 in experiment [1] and in experiment [2] was above 15 µM each time.
As to `CCCO/C(O)=C1\C(C)=NC2=C(C(=O)CC(c3ccccc3OC)C2)C1c1ccc([N+](=O)[O-])cc1` (configuration not stated), the EC50 in experiment [1] was 1.15 µM; in experiment [2], 0.759 µM.
In the case of `N=C(N)N/N=C/c1ccncc1`, the EC50 in experiment [1] is above 15 µM; in experiment [2] it was 3.49 µM.
With `COc1ccc(Nc2cc(C)nc(Nc3ccc(NS(=O)(=O)c4cccc(C)c4)cc3)n2)cc1`, the EC50 in experiment [1] is above 15 µM; in experiment [2], 1.99 µM.
In the same order, the values of `N=C(N/N=C\c1ccc(F)cc1)N/N=C\c1ccc(F)cc1` are 4.74 µM and 0.753 µM.
With `CCOC(=O)c1ccc(-n2[nH]c(-c3ccccc3)cc2=O)cc1`, the concentration giving a half-maximal response (EC50) was 8.96 µM in experiment [1] and above 15 µM in experiment [2].
On the same counts, the results for `C=CCN1C(=S)NC2c3cc(Br)ccc3OC1(C)C2C` (configuration not stated) are 3.1 µM and 2.58 µM.
On the same counts, the results for `CC(=O)N(C1=C(N2CCOCC2)C(=O)c2ccccc2C1=O)c1ccc(C(=O)O)cc1` are 2.64 µM and above 15 µM.
In the same order, the values of `Cc1ccc(Nc2cc(C)nc(Nc3ccc(NS(=O)(=O)c4cccc(Cl)c4)cc3)n2)cc1` are above 15 µM and 1.46 µM.
On to `CCOc1ccc(-c2nonc2NC(=O)CC(C)C)cc1OCC`, for which the EC50 in experiment [1] worked out at 3.78 µM; in experiment [2] it was 3.14 µM.
On the same counts, the results for `CCCCN(CC)CCCNC(=O)Cn1ncc2c3ccccc3n(Cc3ccccc3)c2c1=O` are above 15 µM and above 15 µM.
On the same counts, the results for `CCc1ccc(S(=O)(=O)Nc2ccc(Nc3nc(C)cc(Nc4ccc(OC)cc4)n3)cc2)cc1` are 9.28 µM and 0.577 µM.
On the same counts, the results for `CCC1CCCCN1CCCNC(=S)Nc1ccc2nc(N3CCN(CC)CC3)cc(C)c2c1` (configuration not stated) are 9.17 µM and 4.39 µM.
On to `CCc1ccc(CN2CCC(n3nccc3NC(=O)Nc3ccccc3C)CC2)cc1`, for which the 50% effective concentration (EC50) is above 15 µM in experiment [1] and 6.75 µM in experiment [2].
In the same order, the values of `CCOc1ccccc1C(=O)Nc1cc2c3c(c1)CCN3C(=O)CC2` are above 15 µM and above 15 µM.
In the same order, the values of `CCOc1ccc(NC(=O)C2Sc3nnc(-c4ccccc4)n3NC2c2ccc(OC)cc2)cc1` (configuration not stated) are above 15 µM and above 15 µM.
On the same counts, the results for `COc1ccc(OC)c(C2CC(=O)C3=C(C2)NC(=O)CC3c2ccc([N+](=O)[O-])cc2)c1` (configuration not stated) are 1.53 µM and above 15 µM.
In the case of `CCCCCCCOC(=O)c1[nH]c2c(c1C)C(=O)CC(c1ccco1)C2` (configuration not stated), the EC50 in experiment [1] amounted to 1.19 µM; in experiment [2], 2.01 µM.
Regarding `COc1ccc(-n2c(C)cc(/C=c3\sc4nc5ccccc5n4c3=O)c2C)cc1`, the concentration giving a half-maximal response (EC50) in experiment [1] and in experiment [2] was above 15 µM in each case.
For the compound `COc1ccc(N2C(=O)/C(=C/Nc3ccc(F)cc3)c3ccccc3C2=O)cc1`, the EC50 in experiment [1] and in experiment [2] was above 15 µM in each case.
On to `CCOC(=O)C1=C(c2ccc(F)cc2)C(=O)c2ccccc2C1=O`, for which the EC50 in experiment [1] stood at 1.71 µM; in experiment [2] it was 2.28 µM.
On the same counts, the results for `Cc1cc(O)nc2nnc(SCC(=O)Nc3cccc(Cl)c3)n12` are 7.29 µM and above 15 µM.
On the same counts, the results for `Cc1ccc(Nc2cc(C)nc(Nc3ccc(NS(=O)(=O)c4cccc(F)c4)cc3)n2)cc1` are above 15 µM and 1.24 µM.
In the same order, the values of `COc1ccc2nc(C)cc(Nc3cccc(Cl)c3)c2c1` are 9.41 µM and 1.24 µM.
As to `CCOc1ccc(-c2nonc2NC(=O)c2cccc(C)c2)cc1OCC`, the EC50 in experiment [1] amounted to 0.0832 µM; in experiment [2], 0.0619 µM.
On the same counts, the results for `COc1ccc(S(=O)(=O)Nc2ccc(Nc3nc(C)cc(Nc4ccc(C)cc4)n3)cc2)cc1` are 7.51 µM and 0.618 µM.
In the same order, the values of `CCC(=O)NC(c1ccccc1Cl)c1ccc2cccnc2c1O` (configuration not stated) are 2.91 µM and 2.19 µM.
On the same counts, the results for `COC(=O)c1ccccc1NC(=O)c1ccc(Cn2cc(Cl)cn2)cc1` are above 15 µM and above 15 µM.
For the compound `COc1ccc(Nc2nc(NCc3ccccc3)c3ccccc3n2)cc1`, the EC50 was 7.39 µM in experiment [1] and 1.31 µM in experiment [2].

The values above are taken from ChEMBL document CHEMBL1154198, “Chemical genetics of Plasmodium falciparum” (Nature, 2010).
